{"source": "patent US20070020244A1", "about": "“Fiber constructs and process of fiber fabrication” (The Johns Hopkins University, priority 2005, published 2007)", "system": "PC12 cells", "experiment": "PC12 bioassay of NGF released from fiber", "assay_type": "cell-based", "conditions": "for time period of significant cell differentiation: supernatant with released NGF", "source_text": "Nerve growth factor (NGF) was used as the model protein to investigate if incorporation of protein into the fibre compromises its bioactivity. The bioactivity of the released NGF was confirmed by its ability to differentiate PC12 cells, and in a dose-dependent manner. (FIG. 2C) At the increasing loading concentrations of NGF indicated, significant cell differentiation could be observed for time periods of up to 3 d, 5 d and 7 d, respectively. In all cases, the minimum concentration of NGF required to induce neurite outgrowth appeared to be in the region of 0.5 ng/mL, which agrees well with the literature. See, Physiological Reviews 60, 1284-1335 (1980).\nEncapsulation of recombinant human β-NGF (MW 13,200, R&D Systems) was performed in the same way as described for BSA. Ring-spooled fibers were incubated in RPMI media over a period of 1 week, during which supernatants were collected for the PC12 bioassay and NGF ELISA (DuoSet ELISA Development System for human β-NGF, R&D Systems)."}
{"substance": "NGF: Recombinant human β-NGF (MW 13,200, R&D Systems), model protein encapsulated in and released from the fiber", "values": [{"measurement": "minimum concentration of NGF required to induce neurite outgrowth", "setting": "NGF released from fiber, PC12 cells", "result": "~0.5", "unit": "ng/mL"}, {"measurement": "time period of significant cell differentiation", "setting": "loading concentration 66 ng/mL", "result": "up to 3 d"}, {"measurement": "time period of significant cell differentiation", "setting": "loading concentration 86 ng/mL", "result": "≤ 5", "unit": "days"}, {"measurement": "time period of significant cell differentiation", "setting": "loading concentration 112 ng/mL", "result": "≤ 7", "unit": "days"}]}
